From US8791132B2, “Compounds and methods for treatment of hypertension” (Medivation Technologies, Inc., priority 2011, dated 2014)
Like-named read-outs stand apart in the source and are kept apart here.

Legend:
[1] = target: T1, human recombinant adrenergic α1D receptor (Homo sapiens, UniProt P25100); experiment: Radioligand binding, adrenergic α1D ([3H]Prazosin)
T1 construct: expressed in transfected cells; host or cells: HEK-293
T1 sequence (P25100 1-572): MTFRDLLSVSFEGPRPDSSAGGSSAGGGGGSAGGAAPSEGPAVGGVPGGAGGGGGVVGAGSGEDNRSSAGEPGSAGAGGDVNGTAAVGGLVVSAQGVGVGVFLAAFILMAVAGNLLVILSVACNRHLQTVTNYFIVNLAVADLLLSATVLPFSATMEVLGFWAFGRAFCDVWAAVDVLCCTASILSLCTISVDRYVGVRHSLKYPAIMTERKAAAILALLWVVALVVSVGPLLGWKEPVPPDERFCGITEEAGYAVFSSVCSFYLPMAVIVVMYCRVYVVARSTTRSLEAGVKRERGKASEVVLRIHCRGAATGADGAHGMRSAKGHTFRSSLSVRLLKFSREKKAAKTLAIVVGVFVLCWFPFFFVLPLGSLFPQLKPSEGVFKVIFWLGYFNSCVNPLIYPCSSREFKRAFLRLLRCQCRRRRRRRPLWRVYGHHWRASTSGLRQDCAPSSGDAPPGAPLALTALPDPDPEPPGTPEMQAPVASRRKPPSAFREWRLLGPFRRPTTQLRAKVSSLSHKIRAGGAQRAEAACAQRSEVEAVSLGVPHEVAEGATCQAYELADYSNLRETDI
Procedure: Compounds were incubated with 0.6 nM [3H]Prazosin for 60 min at 25° C. Non-specific binding was estimated in the presence of 10 μM phentolamine. Receptor proteins were filtered and washed, the filters were then counted to determine [3H]Prazosin specifically bound. […] Biochemical assay results are presented as the percent inhibition of specific binding in Table B1.

[2] = target: T2, rat adrenergic α1B receptor (Rattus norvegicus, UniProt P15823); experiment: Radioligand binding, adrenergic α1B ([3H]Prazosin)
T2 construct: rat adrenergic α1B receptor obtained from Wistar Rat liver; from tissue; host or cells: Wistar rat liver
T2 sequence (P15823 1-515): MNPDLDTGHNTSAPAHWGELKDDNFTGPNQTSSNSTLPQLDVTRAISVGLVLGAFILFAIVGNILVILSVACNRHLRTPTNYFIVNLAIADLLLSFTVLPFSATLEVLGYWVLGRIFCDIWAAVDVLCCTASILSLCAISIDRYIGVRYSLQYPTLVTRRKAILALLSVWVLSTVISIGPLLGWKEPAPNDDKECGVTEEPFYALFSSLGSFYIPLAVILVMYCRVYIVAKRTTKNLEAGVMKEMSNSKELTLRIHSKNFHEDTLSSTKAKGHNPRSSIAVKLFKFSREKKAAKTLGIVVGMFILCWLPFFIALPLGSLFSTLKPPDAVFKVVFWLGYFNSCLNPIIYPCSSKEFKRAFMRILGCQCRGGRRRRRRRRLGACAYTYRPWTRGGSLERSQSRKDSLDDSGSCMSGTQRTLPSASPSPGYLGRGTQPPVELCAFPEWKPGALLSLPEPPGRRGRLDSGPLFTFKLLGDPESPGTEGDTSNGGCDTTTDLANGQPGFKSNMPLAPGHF
How it was run: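 Incubation ran 60 min at 25 °C in Tris-HCl buffer (50 mM, pH 7.4, 0.5 mM EDTA) with Wistar rat liver α1B receptor. 10 μM phentolamine set non-specific binding.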

[3] = target: T3, human recombinant adrenergic α2B receptor (Homo sapiens, UniProt P18089); experiment: Radioligand binding, adrenergic α2B ([3H]Rauwolscine)
T3 construct: expressed in transfected cells; host or cells: CHO-K1
T3 sequence (P18089 1-450): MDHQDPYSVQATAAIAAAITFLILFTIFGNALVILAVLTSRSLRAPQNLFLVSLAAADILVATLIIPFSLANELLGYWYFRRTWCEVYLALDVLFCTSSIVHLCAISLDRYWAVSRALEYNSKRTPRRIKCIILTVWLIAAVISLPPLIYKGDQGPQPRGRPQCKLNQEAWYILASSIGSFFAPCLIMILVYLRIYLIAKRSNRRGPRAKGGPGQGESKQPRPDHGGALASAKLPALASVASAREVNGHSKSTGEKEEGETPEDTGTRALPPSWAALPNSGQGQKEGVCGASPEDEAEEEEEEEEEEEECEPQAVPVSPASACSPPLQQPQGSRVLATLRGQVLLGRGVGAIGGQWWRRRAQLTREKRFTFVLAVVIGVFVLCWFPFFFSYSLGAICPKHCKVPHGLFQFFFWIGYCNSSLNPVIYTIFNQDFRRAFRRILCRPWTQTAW
How it was run: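 Receptor expressed in CHO-K1 cells, assayed in 50 mM Tris-HCl pH 7.4 with 12.5 mM MgCl2, 1 mM EDTA and 0.2% BSA. Compounds were incubated with 2.5 nM [3H]Rauwolscine for 60 min at 25° C; 10 μM Prazosin defined non-specific binding. Filter counting gave percent inhibition of specific binding.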

[4] = target: T4, human recombinant adrenergic α2A receptor (Homo sapiens, UniProt P08913); experiment: Radioligand binding, adrenergic α2A ([3H]MK-912)
T4 construct: expressed in transfected cells; host or cells: insect Sf9 cells
T4 sequence (P08913 1-465): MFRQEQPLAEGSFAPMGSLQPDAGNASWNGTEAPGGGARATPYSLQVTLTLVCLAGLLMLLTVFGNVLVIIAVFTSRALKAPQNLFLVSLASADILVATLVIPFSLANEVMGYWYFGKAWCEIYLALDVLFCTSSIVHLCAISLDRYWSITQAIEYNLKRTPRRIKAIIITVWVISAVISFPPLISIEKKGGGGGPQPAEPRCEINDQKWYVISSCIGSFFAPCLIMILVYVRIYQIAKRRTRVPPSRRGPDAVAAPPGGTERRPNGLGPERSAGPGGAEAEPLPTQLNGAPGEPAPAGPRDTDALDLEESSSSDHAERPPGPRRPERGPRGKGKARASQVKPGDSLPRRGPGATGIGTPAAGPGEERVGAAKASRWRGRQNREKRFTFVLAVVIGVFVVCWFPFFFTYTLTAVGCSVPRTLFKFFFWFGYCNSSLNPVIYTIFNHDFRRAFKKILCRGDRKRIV
How it was run: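 In 50 mM Tris-HCl (pH 7.4) containing 12.5 mM MgCl2 and 2 mM EDTA, Sf9-expressed receptor was exposed to test compound plus 1 nM [3H]MK-912 at 25 °C for 60 min. Specific binding, corrected using 10 μM WB-4101, was quantified by filtration and counting and expressed as percent inhibition.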

[5] = read-out: Percentage inhibition of ligand binding, Adrenergic α1D (0.1 μM), compound at 0.1 μM, [3H]Prazosin, repeat datapoints each shown
[6] = read-out: Percentage inhibition of ligand binding, Adrenergic α1B (0.1 μM), compound at 0.1 μM, [3H]Prazosin, repeat datapoints each shown
[7] = read-out: Percentage inhibition of ligand binding, Adrenergic α2B (0.1 μM), compound at 0.1 μM, [3H]Rauwolscine, repeat datapoints each shown
[8] = read-out: Percentage inhibition of ligand binding, Adrenergic α2A (0.1 μM), compound at 0.1 μM, [3H]MK-912, repeat datapoints each shown
[9] = compound at 0.1 μM, [3H]Prazosin, repeat assays, each datapoint shown, read-out: Percentage inhibition of ligand binding, Adrenergic α1D
[10] = compound at 0.1 μM, [3H]Rauwolscine, repeat assays, each datapoint shown, read-out: Percentage inhibition of ligand binding, Adrenergic α2B
[11] = 0.1 μM compound, read-out: Percentage inhibition of ligand binding, Adrenergic α1D
[12] = 0.1 μM compound, read-out: Percentage inhibition of ligand binding, Adrenergic α1B
[13] = 0.1 μM compound, read-out: Percentage inhibition of ligand binding, Adrenergic α2B
[14] = 0.1 μM compound, read-out: Percentage inhibition of ligand binding, Adrenergic α2A

Row | SMILES | inhibition at 0.1 µM [1, 11] | inhibition at 0.1 µM [2, 12] | inhibition at 0.1 µM [3, 13] | inhibition at 0.1 µM [4, 14] | other results
1 | C/C(=C\n1c2c(c3cc(C)ccc31)CN(C)CC2)c1ccc(CO)nc1 [compound 125, (E)-(5-(1-(2,8-dimethyl-3,4-dihydro-1H-pyrido[4,3-b]indol-5(2H)-yl)prop-1-en-2-yl)pyridin-2-yl)methanol] | – | – | – | – | inhibition at 0.1 µM [1, 5]: 1%; inhibition at 0.1 µM [2, 6]: -3%; inhibition at 0.1 µM [3, 7]: 68%; inhibition at 0.1 µM [4, 8]: -4%
2 | CN1CCc2c(c3cc(Cl)ccc3n2CCc2cccnc2)C1 [compound 60] | – | – | – | – | inhibition at 0.1 µM [1, 9]: 35%; inhibition at 0.1 µM ([2]; compound at 0.1 μM, [3H]Prazosin, repeat assays, each datapoint shown, read-out: Percentage inhibition of ligand binding, Adrenergic α1B): 65%; inhibition at 0.03 µM ([3]; compound at 0.03 μM, [3H]Rauwolscine, repeat assays, each datapoint shown, read-out: Percentage inhibition of ligand binding, Adrenergic α2B): 66%; inhibition at 0.1 µM [3, 10]: 93%; Ki ([3]; read-out: Ki α2B): 5.84 nM; inhibition at 0.1 µM ([4]; compound at 0.1 μM, [3H]MK-912, repeat assays, each datapoint shown, read-out: Percentage inhibition of ligand binding, Adrenergic α2A): 26%
3 | Cc1ccc2c(c1)c1c(n2CC(C)(O)c2ccc(F)cc2)CCN(C)C1 (centres unmarked) [compound 90] | – | – | – | – | inhibition at 0.1 µM [1, 9]: 20%; Percentage inhibition of ligand binding, Adrenergic α1B ([2]; compound at 0.1 μM, [3H]Prazosin, repeat assays, each datapoint shown, 0.1 µM): 57%; inhibition at 0.1 µM [3, 10]: 91%; Percentage inhibition of ligand binding, Adrenergic α2A ([4]; compound at 0.1 μM, [3H]MK-912, repeat assays, each datapoint shown, 0.1 µM): 22%
4 | Cc1ccc2c(c1)c1c(n2C#Cc2ccc(S(N)(=O)=O)cc2)CN(C)CC1 [compound 333, 4-(2,6-dimethyl-1,2,3,4-tetrahydro-β-carbolin-9-ylethynyl)-benzenesulfonamide] | 16% | 65% | 88% | 52% | –
5 | C/C(=C\n1c2c(c3cc(C)cc(C)c31)CN(C)CC2)c1cccc(S(C)(=O)=O)c1 [compound 310] | 47% | 63% | 87% | 69% | –
6 | C/C(=C/n1c2c(c3cc(Cl)ccc31)CCN(C)CC2)c1ccc(Cl)cc1Cl [compound 228] | – | – | – | – | inhibition at 0.1 µM [1, 5]: 19%; inhibition at 0.1 µM [2, 6]: 64%; inhibition at 0.1 µM [3, 7]: 42%; inhibition at 0.1 µM [4, 8]: 77%

Further lines, with some results ahead:

Row | inhibition at 0.1 µM [1, 11] | inhibition at 0.1 µM [2, 12] | inhibition at 0.1 µM [3, 13] | inhibition at 0.1 µM [4, 14] | SMILES | other results
7 | 40% | 23% | 37% | 57% | Cc1ccc2c(c1)c1c(n2C2=C(c3ccnn3C)CCC2)CCN(C)C1 [compound 309, 2,8-dimethyl-5-(2-(1-methyl-1H-pyrazol-5-yl)cyclopent-1-enyl)-2,3,4,5-tetrahydro-1H-pyrido[4,3-b]indole] | –
8 | 65% | 76% | 98% | 97% | CSc1ccc(/C(C)=C/n2c3c(c4cc(Cl)ccc42)CN(C)CC3)cc1 [compound 280] | –
9 | 68% | 82% | 101% | 86% | COc1ccc(/C(C)=C/n2c3c(c4cc(Cl)ccc42)CCN(C)CC3)cc1 [compound 246] | –
